# Laboratory results: patent EP4574175A1, “PRODRUG FOR ANTI-AGING RELATED DISEASES AND USE METHOD THEREFOR” (BEIJING SUNCELL BIO-MEDICAL CO., LTD., priority 2022, dated 2024)
# Assays:
# [1] = test system: normal cells (HEF, HELF, BJ, A549, HUVEC, MRC5); test: Cell viability test (CCK-8) on normal uninduced cells, A13 vs A13bGa1; conditions: compared with parent compound A13
# Method: Briefly, the human embryonic skin tissues and the fetal lung tissues obtained from the aborted tissues with the patient's informed consent were minced with the forcep and incubated in 1 mg/ml collagenase IV at 37°C for 1-2 hours. After the enzyme treatment, the cells were collected by centrifugation and resuspended in HEF medium (Dulbecco's modified Eagle medium (DMEM, Gibco) containing 10% fetal bovine serum (FBS, Ausbian), 1% GlutaMAX (Gibco), 1% non-essential amino acids (NEAA, Gibco) and 1% penicillin/streptomycin (Gibco). Gibco). Cells were plated on the 10 cm tissue culture dishes and grown in 10% FBS DMEM. […] They were passaged and cryopreserved according to Lonza's method. A549 cells, BJ cells and MRC5 cells were purchased from ATCC and cultured in DMEM medium containing 10% fetal bovine serum (FBS, Ausbian), and 1% penicillin/streptomycin (Gibco).
# Cell Counting Kit-8 (CCK-8) assay was used to assess the cell viability. The senescent and non-senescent cells or chondrocytes were seeded into the 96-well plates and cultured overnight. The cells were then treated with control (0.05% DMSO) or different concentrations of the drug to be tested. […] Absorbance was measured at the wavelength of 450 nm.
# [2] = Hepatic microsomal metabolic stability
# [3] = Hepatic microsomal metabolic stability; remark: listed apart in the source
# [4] = target: T1, E. coli-derived β-galactosidase (Escherichia coli, UniProt P00722); test: In vitro enzymatic hydrolysis reaction monitored by HPLC; format: biochemical; conditions: 10 µM, PBS pH 7.3, 37°C, 6 hours
# T1 construct: purchased Sigma
# Method: The in vitro enzymatic hydrolysis reaction was carried out using E. coli-derived β-galactosidase (Sigma) in PBS solution (0.01 M, pH 7.3) at a reaction concentration of 10 µM for both A13 and A13bG, and for 6 hours at 37°C after the addition of β-galactosidase (10 U/µM). The hydrolysis reaction was monitored by the high performance liquid chromatography (HPLC). The compound A13 and the prodrug A13bG without enzyme reaction were analyzed by HPLC at the same conditions as the references. The chromatographic column model: Waters Acquity BEH C4, the conditions: 0.04 ml/min, (water (0.1% acetic acid)): the acetonitrile gradient elution: 98:2 1 min, 5:95 13 min, 5:95 18 min, 2:98 20 min.
# [5] = Hepatic microsomal metabolic stability; remark: listed apart in the source
# [6] = Hepatic microsomal metabolic stability; remark: listed apart in the source
# [7] = Hepatic microsomal metabolic stability; conditions: mouse
# Method: […] Samples were taken and analyzed at time points 0, 15, 30, 45 and 60 minutes during the incubation. The reaction was terminated by adding an amount of acetonitrile solution containing the internal standard. […] The residual percentage, half-life, intrinsic clearance, amplified clearance, hepatic clearance and hepatic extraction ratio were determined. The entire experiment was performed in triplicate. All data calculations were performed by Microsoft Excel software. Peak areas were detected by extracting the ionic spectrum. The in vitro half-life (t1/2) of the parent compound was detected by fitting the natural logarithm of the percentage elimination of the parent compound linearly to time.
# The in vitro intrinsic clearance (in µL/min/mg protein) was calculated using the following equation: in vitro CLint = kV/N
# The amplified clearance (in mL/min/kg) was calculated using the following equation: Amplified CLint = kV/N × the amplification factor [formula]
# The hepatic clearance (in mL/min/kg) was calculated using the following equation: The predicted hepatic CLH = (Q×Fu/RB×theamplifiedCLint)/([…]) [formula] • V = the incubation volume per well (0.2 mL); • N = the total amount of protein (mg) • Q = the hepatic blood flow (mL/min/kg) • Fu = the plasma free rate (assumed to be 1) • RB = the whole blood partition coefficient (assumed to be 1)
# The hepatic […] was calculated using the following equation: The hepatic extraction ratio(ER) = (thepredictedhepaticCLH)/Q [formula]
# [8] = Plasma metabolic stability; format: in vitro ADME; conditions: 10 µM, 120 minutes; for The peak area after normalisation at minute 120, peak 1 oxidative dehydrogenation: metabolite peak
# Method: Termination of the reaction was accomplished by the addition of 3x volume of acetonitrile and centrifugation at 16000 g for 20 minutes. The supernatant was taken for a LC-MS/MS analysis. The chromatographic column: Waters XSelect HSS T3; the flow rate: 500 µL/min; the eluent: A, water (0.1% formic acid); B, acetonitrile (0.1% formic acid); the gradient elution: 0-1.5 min, 5% B, 1.5-9 min, 5%-80% B, 9-12 min, 80%-100% B, 12-14 min, 100% B, 14-14.3 min, 100%-5% B, 14.3-15 min, 5% B.
# T1 sequence (P00722 2-1024): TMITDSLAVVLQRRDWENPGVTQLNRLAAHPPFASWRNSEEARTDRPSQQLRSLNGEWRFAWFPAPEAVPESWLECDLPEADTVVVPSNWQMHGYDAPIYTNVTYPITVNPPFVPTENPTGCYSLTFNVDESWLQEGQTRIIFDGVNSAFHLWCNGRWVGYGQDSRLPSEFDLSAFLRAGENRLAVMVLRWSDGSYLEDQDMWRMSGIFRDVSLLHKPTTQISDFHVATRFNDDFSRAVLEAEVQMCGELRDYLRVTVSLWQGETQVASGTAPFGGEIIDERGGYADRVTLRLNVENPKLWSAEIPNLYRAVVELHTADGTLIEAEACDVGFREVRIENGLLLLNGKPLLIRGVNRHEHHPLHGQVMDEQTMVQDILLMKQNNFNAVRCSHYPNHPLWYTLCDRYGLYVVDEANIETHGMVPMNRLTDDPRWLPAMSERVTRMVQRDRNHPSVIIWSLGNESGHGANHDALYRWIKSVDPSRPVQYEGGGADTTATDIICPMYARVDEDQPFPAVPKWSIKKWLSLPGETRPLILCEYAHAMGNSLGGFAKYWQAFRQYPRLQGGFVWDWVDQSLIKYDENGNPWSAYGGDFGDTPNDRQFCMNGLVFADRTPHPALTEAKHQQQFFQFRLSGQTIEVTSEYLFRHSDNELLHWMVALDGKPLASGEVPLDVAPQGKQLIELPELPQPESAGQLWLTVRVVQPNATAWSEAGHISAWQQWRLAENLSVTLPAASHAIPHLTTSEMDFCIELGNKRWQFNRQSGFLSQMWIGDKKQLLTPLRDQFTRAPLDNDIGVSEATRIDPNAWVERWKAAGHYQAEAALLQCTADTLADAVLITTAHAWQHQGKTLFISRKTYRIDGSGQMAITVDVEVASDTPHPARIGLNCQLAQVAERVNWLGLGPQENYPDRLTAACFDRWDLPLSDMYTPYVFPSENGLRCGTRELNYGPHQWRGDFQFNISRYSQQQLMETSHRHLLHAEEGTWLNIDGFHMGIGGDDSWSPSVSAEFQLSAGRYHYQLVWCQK
compound,measurement,setting,value
Cc1c(-c2ccc(N3CCc4cccc(C(=O)Nc5nc6ccccc6s5)c4C3)nc2C(=O)OCc2ccc(O[C@@H]3O[C@H](CO)[C@H](O)[C@H](O)[C@H]3O)c([N+](=O)[O-])c2)cnn1CC12CC3CC(CC(C3)C1)C2 [A13bGa1],toxicity to the normal cells,[1],greatly reduced
same,CLint scaled,[2],17.9 mL/min/kg
same,The hepatic extraction ratio (E),[2]; human,0.86
same,The hepatic extraction ratio (E),[3]; Monkey,0.69
same,microsomal CLint at 1 µM,"[3]; monkey, microsomes",65.3 µL/min/mg
same,CLint scaled at 1 µM,"[3]; monkey, microsomes, The amplified intrinsic clearance Cl int",9800 mL/min/kg
same,CLint scaled at 1 µM,"[3]; monkey, microsomes, The predicted intrinsic hepatic clearance Cl int",30.2 mL/min/kg
same,hydrolysis by β-gal enzyme,[4],hydrolysed under the action of β-gal enzyme to release the parent compound A13
same,The hepatic extraction ratio (E),[5]; Canine,0.70
same,CLint scaled at 1 µM,"[5]; dog, microsomes",21.7 mL/min/kg
same,microsomal CLint at 1 µM,"[5]; dog, microsomes",29.3 µL/min/mg
same,The hepatic extraction ratio (E),[6]; Rat,0.34
same,CLint scaled at 1 µM,"[6]; rat, microsomes",18.7 mL/min/kg
same,microsomal CLint at 1 µM,"[6]; rat, microsomes",15.8 µL/min/mg
same,The hepatic extraction ratio (E),[7],0.40
same,CLint scaled at 1 µM,[7]; microsomes,36.2 mL/min/kg
same,microsomal CLint at 1 µM,[7]; microsomes,13.8 µL/min/mg
same,"The peak area after normalisation at minute 120, Initial drug A13bGa1",[8]; Canine plasma,99.52%
same,"The peak area after normalisation at minute 120, Initial drug A13bGa1",[8]; Monkey plasma,99.96%
same,"The peak area after normalisation at minute 120, Initial drug A13bGa1",[8]; Mouse plasma,99.96%
same,"The peak area after normalisation at minute 120, Initial drug A13bGa1",[8]; Rat plasma,99.87%
same,"The peak area after normalisation at minute 120, peak 1 oxidative dehydrogenation",[8]; Canine plasma,0.48%
same,"The peak area after normalisation at minute 120, peak 1 oxidative dehydrogenation",[8]; Monkey plasma,0.04%
same,"The peak area after normalisation at minute 120, peak 1 oxidative dehydrogenation",[8]; Mouse plasma,0.04%
same,"The peak area after normalisation at minute 120, peak 1 oxidative dehydrogenation",[8]; Rat plasma,0.13%
